Measurements published in US9259432B1, “Composition and methods for targeted delivery of a therapeutic compound to the brain or spinal cord of a subject for treatment of neurodegenerative diseases” (Parminder J. S. Vig, priority 2011, dated 2016).

Experiments:
[1] = test system: SHSY5Y cells; test: 488-S100B uptake in SHSY5Y cells; format: cell-based; conditions: then 1 μM 488-S100B 3 hrs
Experimental: FIG. 14: (a) WT SHSY5Y cells were placed on chamber slides and pretreated with 50 μM Synb1-ELP-TRTK or Synb1-ELP-GGC for 1 hr at 37° C. Next, cells were washed then treated with 1 μM 488-S100B for 3 hrs followed by washing, fixation and DAPI staining. Shown is DAPI nuclear stain in blue and 488-S100B in green. Scale bar: 10 μm. (b) SHSY5Y cells were placed on 6-well plates and pretreated with 50 μM Synb1-ELP-TRTK12 or Synb1-ELP-GGC for 1 hr at 37° C. then treated with 1 μM 488-S100B for 3 hrs, then cells were removed and 488-S100B uptake was measured using flow cytometry. Data is shown as MEAN±STDEV of the % Uptake relative to the control. Statistics were taken using student's t-test. *P<0.05.
SHSY5Y cells (Invitrogen, Carlsbad, Calif., USA) were maintained in DMEM/F12 media (Fisher, Houston, Tex., USA) supplemented with 15% FBS, penicillin-streptomycin (Sigma), and grown in an incubator at 37° C. in the presence of 5% CO2. […] Next, cells were washed then treated with 1 μM 488-S100B for 3 hrs and S100B uptake was analyzed by Epi-fluorescence or by Beckman Cytometric FC 500 flow cytometer as previously described (Bidwell et al., 2009). For flow cytometry experiments, 488-S100B uptake was measured by quenching extracellular fluorescence by coating the cells with Trypan Blue (Fisher) as described previously (Bidwell et al., 2009). […]

[2] = IgG levels in plasma by ELISA; format: in vivo, mice; conditions: 100 mg/kg, treated multiple times, no heat; samples diluted 1:50,000
Experimental: IgG levels in plasma of mice treated withof SynB1-ELP-GGC (100 mg/kg) and SynB1-ELP-TRTK (100 mg/kg) were obtained. Mice were treated multiple times without induction of hyperthermia. IgG levels were measured using ELISA. Samples were diluted 1:50,000 and compared against a standard curve generated using a mouse IgG standard.

[3] = test system: SCA1/+ mice; test: Bar cross test; format: in vivo; conditions: IP, 10 doses every other day for 3 wks, with and without heat
Experimental: A minimum of five 2 wks old SCA1/+mice were treated IP with vehicle (saline), ELP-GGC or ELP-TRTK peptides multiple times (total 10 doses) every other day for 3 wks. Some animals were subjected to hyperthermia. After completion of the treatments, animals were subjected to behavioral tests.
Bar cross test. The bar-crossing apparatus for testing balance and fine motor coordination consisted of a horizontal U-shaped platform made of wood supported on 30 cm legs. The two parallel 30-cm-long bars of the U were wide enough (18 mm) for the mice to walk easily, whereas the piece connecting them, the challenge bar, was also 30 cm long but only 2 mm wide. Animals were placed on one of the wide bars and allowed to move about on the apparatus for 5 min. After the spontaneous activity portion of the bar cross test, animal were subjected to a forced task. In this task, the mice were placed in the middle of the challenge bar in order to force a crossing attempt. A maximum of 120 sec was allowed for mice to stay on the bar, and the latency to fall (on a padded surface; height=30 cm) or cross (Cross) successfully was measured in seconds. The surface of the apparatus was cleaned with mild soap solution and air-dried between mice. […]

With “Synb1-ELP-TRTK: thermally responsive S100B inhibitory polypeptide: Synb1 cell penetrating peptide, elastin-like polypeptide (ELP) and TRTK12 peptide fused” as the substance, how does the “488-S100B uptake, epi-fluorescence” value ([1]; 50 μM pretreatment 1 hr at 37° C.) read?
The value was “reduced 488-S100B cellular uptake”.

And the “488-S100B uptake, flow cytometry” value ([1]; 50 μM pretreatment 1 hr, vs Control and Synb1-ELP-GGC pretreated cells)?
Its value is “significantly reduced 488-S100B uptake”.

What about the “IgG level in plasma, OD Value” [2] of the same substance?
Its value is 0.2552.

What about the “hyperactivity, slip frequency, Sniff Up and down frequency” value [3] of the same substance?
The value was “suppresses these activities”.
